Laboratory results: paper PMC5209312, “Glycin-rich antimicrobial peptide YD1 from B. amyloliquefaciens, induced morphological alteration in and showed affinity for plasmid DNA of E. coli” (AMB Express, 2017)
Where two headings read alike, the source gives them in different places. Ends that are not written are not given here.

What was measured:
VRE 2 = assay type: cell-based, vancomycin-resistant enterococci
Experimental: (§1) The minimal inhibitory concentration (MIC) was determined according to the method described by Weigand et al. ([2008]).

VRE 5 = assay type: cell-based, vancomycin-resistant enterococci
Experimental: as §1

E. coli spheroplasts = assay type: cell-based, Escherichia coli; conditions: 2 h, 40 µg/mL
Experimental: Spheroplasts are gram-negative bacteria in which nearly all of the outer membrane (OM) has been removed. Lysozyme destroys the peptide bonds in peptidoglycan and weakens the cell wall. E. coli was grown in 10 mL of MHB, incubated overnight at 37 °C on a shaker at 180 rpm. Each culture (100 µL) was used to inoculate 20 mL of fresh media and incubated at 37 °C for 2 h at 180 rpm. Spheroplasts were prepared as described by Kikuchi et al. ([2015]).
Re-suspended spheroplasts and whole cells suspension were adjusted to OD 570 nm of 0.2 and 100 µL of each was added to a clear, flat-bottomed microtiter plate in duplicate wells. Ten microliters of YD1 in 10 mM Tris–HCl buffer (pH 7) was added to test wells for both preparations (spheroplasts and whole cells) at the indicated different final concentrations. To the control, 10 µL of 10 mM Tris–HCl buffer (pH 7) was added in lieu of YD1. The percentage of intact spheroplasts or whole cells was calculated as: =Sample OD at time X/Sample OD at time0×100
Decrease in the OD of the suspension after addition of a membrane-active agent indicates lysis of spheroplasts.

[1] = system: Salmonella Typhimurium KCTC 1925; assay type: cell-based
Experimental: as §1

[2] = system: Mycobacterium smegmatis ATCC 9341; assay type: cell-based
Experimental: as §1

VRSA = assay type: cell-based
Experimental: as §1

[3] = system: Escherichia coli KCTC1923 (E. coli), methicillin-resistant Staphylococcus aureus B15 (MRSA), and vancomycin-resistant enterococci (VRE); assay type: cell-based
Experimental: as §1

[4] = system: Enterococcus faecalis ATCC 29212; assay type: cell-based
Experimental: as §1

[5] = system: Bacillus subtilis ATCC 6633; assay type: cell-based
Experimental: as §1

[6] = system: Escherichia coli KCTC 1923; assay type: cell-based
Experimental: as §1

[7] = system: Alcaligenes faecalis ATCC 1004; assay type: cell-based
Experimental: as §1

[8] = system: Pseudomonas aeruginosa KCTC 1637; assay type: cell-based
Experimental: as §1

[9] = system: Micrococcus luteus ATCC 9341; assay type: cell-based
Experimental: as §1

[10] = system: Mycobacterium smegmatis ATCC 9341; assay type: cell-based; remark: listed apart in the source
Experimental: A filter paper disc (8 mm, Toyo Roshi Kaisha, Japan) saturated with antimicrobial sample (40 µL) was placed on the surface of petri dish (87 mm × 15 mm) containing Mueller Hinton Agar (MHA). The plate was incubated at 37 °C, and a clear zone of inhibition surrounding the paper disc was measured in millimeter (mm). […] The titer of the antimicrobial substance solution, in AU/mL, was calculated as (1000/d) D, where D was the dilution factor, and d was the dose, the amount of antimicrobial substance solution added to each spot. AU and the zone of inhibition were measured against Mycobacterium smegmatis ATCC 9341 while optimizing CBSYD1 media.

[11] = Experimental: (§2) The thermal stability of YD1 samples was determined by exposure to 20, 40, 60, 80 and 100 °C for 30 min and to 121 °C/105 kPa for 15 min before analyzing the residual activity. Similarly, pH stability was determined over a range of pH 2–10 using 1 M NaOH or HCl. The effect of protease enzyme on YD1 stability was determined at two different enzyme concentrations (1 and 2 mg/mL).
protease enzymes = conditions: enzymes at 1 and 2 mg/mL
Experimental: as §2

MRSA B15 = assay type: cell-based, methicillin-resistant Staphylococcus aureus; conditions: method of Wiegand et al. 2008
Experimental: as §1

[12] = system: Staphylococcus aureus KCTC 1928; experiment: MIC determination; assay type: cell-based; conditions: method of Wiegand et al. 2008
Experimental: as §1

APKGVQGPNG [YD1, Ala-Pro-Lys-Gly-Val-Gln-Gly-Pro-Asn-Gly]
MIC (VRE 2): 64 µg/mL
MIC (VRE 5): 64 µg/mL
intact surviving spheroplasts (E. coli spheroplasts): > 88%
MIC ([1]; KCTC 1925): 32 µg/mL
MIC ([2]; ATCC 9341): 8 µg/mL
MIC (VRSA): >128 µg/mL
MIC (range over E. coli KCTC1923, MRSA B15 and VRE) [3]: 8 to 64 µg/mL
MIC ([4]; ATCC 29212): 64 µg/mL
MIC ([5]; ATCC 6633): 64 µg/mL
MIC ([6]; KCTC 1923): 8 µg/mL
MIC ([7]; ATCC 1004): >128 µg/mL
MIC ([8]; KCTC 1637): 16 µg/mL
MIC ([9]; ATCC 9341): 64 µg/mL
clear zone of inhibition [10]: up to 16 mm
thermal stability (activity) ([11]; at or above 100 °C (100 °C 30 min; 121 °C/105 kPa 15 min)): decreased sharply
pH stability (residual activity) ([11]; pH 4–9, tested pH 2–10 with 1 M NaOH or HCl): completely stable
thermal stability (residual activity) ([11]; up to 80 °C, 30 min exposure): completely stable
effect of protease enzymes on antimicrobial activity (protease enzymes): failed to alter

Bacitracin [reference compound]
MIC (VRE 2; VRE 2, method of Wiegand et al. 2008): 32 µg/mL
MIC (VRE 5; VRE 5, method of Wiegand et al. 2008): 64 µg/mL
MIC (MRSA B15): 64 µg/mL
MIC [12]: >128 µg/mL
MIC ([1]; Salmonella Typhimurium KCTC 1925, method of Wiegand et al. 2008): 64 µg/mL
MIC ([2]; Mycobacterium smegmatis ATCC 9341, method of Wiegand et al. 2008): >128 µg/mL
MIC (VRSA; VRSA, method of Wiegand et al. 2008): >128 µg/mL
MIC ([4]; Enterococcus faecalis ATCC 29212, method of Wiegand et al. 2008): 2 µg/mL
MIC ([5]; Bacillus subtilis ATCC 6633, method of Wiegand et al. 2008): 64 µg/mL
MIC ([6]; Escherichia coli KCTC 1923, method of Wiegand et al. 2008): >128 µg/mL
MIC ([7]; Alcaligenes faecalis ATCC 1004, method of Wiegand et al. 2008): >128 µg/mL
MIC ([8]; Pseudomonas aeruginosa KCTC 1637, method of Wiegand et al. 2008): >128 µg/mL
MIC ([9]; Micrococcus luteus ATCC 9341, method of Wiegand et al. 2008): 64 µg/mL
